Measured values taken from publication PMC4843002, “Identification of pyrazolopyridazinones as PDEδ inhibitors” (Nature Communications, 2016).

Key:
[1] = target: T1, A1 (h) (Homo sapiens, UniProt P30542); experiment: Cerep binding, antagonist radioligand; conditions: read-out: % Inhibition of Control Specific Binding
T1 construct: purchased Eurofins Pharma Discovery Services (CEREP diversity panel)

[2] = target: T2, A3 (h) (Homo sapiens, UniProt P0DMS8); experiment: Cerep binding, agonist radioligand; conditions: read-out: % Inhibition of Control Specific Binding
T2 construct: purchased Eurofins Pharma Discovery Services (CEREP diversity panel)

[3] = system: alpha 1 (non-selective); experiment: Cerep binding, antagonist radioligand; conditions: 5 µM
[4] = target: T3, beta 1 (h) (Homo sapiens, UniProt P08588); experiment: Cerep binding, agonist radioligand; conditions: read-out: % Inhibition of Control Specific Binding
T3 construct: purchased Eurofins Pharma Discovery Services (CEREP diversity panel)

[5] = target: T4, beta 2 (h) (Homo sapiens, UniProt P07550); experiment: Cerep binding, agonist radioligand; conditions: read-out: % Inhibition of Control Specific Binding
T4 construct: purchased Eurofins Pharma Discovery Services (CEREP diversity panel)

[6] = target: T5, AT1 (h) (Homo sapiens, UniProt P30556); experiment: Cerep binding, antagonist radioligand; conditions: read-out: % Inhibition of Control Specific Binding
T5 construct: purchased Eurofins Pharma Discovery Services (CEREP diversity panel)

[7] = target: T6, AT2 (h) (Homo sapiens, UniProt P50052); experiment: Cerep binding, agonist radioligand; conditions: read-out: % Inhibition of Control Specific Binding
T6 construct: purchased Eurofins Pharma Discovery Services (CEREP diversity panel)

[8] = system: BZD (central); experiment: Cerep binding, agonist radioligand; conditions: 5 µM
[9] = target: T7, B1 (h) (Homo sapiens, UniProt P46663); experiment: Cerep binding, agonist radioligand; conditions: read-out: % Inhibition of Control Specific Binding
T7 construct: purchased Eurofins Pharma Discovery Services (CEREP diversity panel)

[10] = target: T8, B2 (h) (Homo sapiens, UniProt P30411); experiment: Cerep binding, agonist radioligand; conditions: read-out: % Inhibition of Control Specific Binding
T8 construct: purchased Eurofins Pharma Discovery Services (CEREP diversity panel)

[11] = target: T9, CB1 (h) (Homo sapiens, UniProt P21554); experiment: Cerep binding, agonist radioligand; conditions: read-out: % Inhibition of Control Specific Binding
T9 construct: purchased Eurofins Pharma Discovery Services (CEREP diversity panel)

[12] = target: T10, CB2 (h) (Homo sapiens, UniProt P34972); experiment: Cerep binding, agonist radioligand; conditions: read-out: % Inhibition of Control Specific Binding
T10 construct: purchased Eurofins Pharma Discovery Services (CEREP diversity panel)

[13] = target: T11, D3 (h) (Homo sapiens, UniProt P35462); experiment: Cerep binding, antagonist radioligand; conditions: read-out: % Inhibition of Control Specific Binding
T11 construct: purchased Eurofins Pharma Discovery Services (CEREP diversity panel)

[14] = target: T12, ETA (h) (Homo sapiens, UniProt P25101); experiment: Cerep binding, agonist radioligand; conditions: read-out: % Inhibition of Control Specific Binding
T12 construct: purchased Eurofins Pharma Discovery Services (CEREP diversity panel)

[15] = system: GABA (non-selective); experiment: Cerep binding, agonist radioligand; conditions: 5 µM
[16] = system: AMPA; experiment: Cerep binding, agonist radioligand; conditions: 5 µM
[17] = system: kainate; experiment: Cerep binding, agonist radioligand; conditions: 5 µM
[18] = system: NMDA; experiment: Cerep binding, antagonist radioligand; conditions: 5 µM
[19] = target: T13, H1 (h) (Homo sapiens, UniProt P35367); experiment: Cerep binding, antagonist radioligand; conditions: read-out: % Inhibition of Control Specific Binding
T13 construct: purchased Eurofins Pharma Discovery Services (CEREP diversity panel)

[20] = target: T14, H2 (h) (Homo sapiens, UniProt P25021); experiment: Cerep binding, antagonist radioligand; conditions: read-out: % Inhibition of Control Specific Binding
T14 construct: purchased Eurofins Pharma Discovery Services (CEREP diversity panel)

[21] = target: T15, BLT1 (LTB4) (h) (Homo sapiens, UniProt Q15722); experiment: Cerep binding, agonist radioligand; conditions: read-out: % Inhibition of Control Specific Binding
T15 construct: purchased Eurofins Pharma Discovery Services (CEREP diversity panel)

[22] = target: T16, MT1 (ML1A) (h) (Homo sapiens, UniProt P48039); experiment: Cerep binding, agonist radioligand; conditions: read-out: % Inhibition of Control Specific Binding
T16 construct: purchased Eurofins Pharma Discovery Services (CEREP diversity panel)

[23] = target: T17, NK1 (h) (Homo sapiens, UniProt P25103); experiment: Cerep binding, agonist radioligand; conditions: read-out: % Inhibition of Control Specific Binding
T17 construct: purchased Eurofins Pharma Discovery Services (CEREP diversity panel)

[24] = target: T18, NK2 (h) (Homo sapiens, UniProt P21452); experiment: Cerep binding, agonist radioligand; conditions: read-out: % Inhibition of Control Specific Binding
T18 construct: purchased Eurofins Pharma Discovery Services (CEREP diversity panel)

[25] = target: T19, NK3 (h) (Homo sapiens, UniProt P29371); experiment: Cerep binding, antagonist radioligand; conditions: read-out: % Inhibition of Control Specific Binding
T19 construct: purchased Eurofins Pharma Discovery Services (CEREP diversity panel)

[26] = system: Y (non-selective); experiment: Cerep binding, agonist radioligand; conditions: 5 µM
[27] = target: T20, IP (PGI2) (h) (Homo sapiens, UniProt P43119); experiment: Cerep binding, agonist radioligand; conditions: read-out: % Inhibition of Control Specific Binding
T20 construct: purchased Eurofins Pharma Discovery Services (CEREP diversity panel)

[28] = system: P2X; experiment: Cerep binding, agonist radioligand; conditions: 5 µM
[29] = system: P2Y; experiment: Cerep binding, agonist radioligand; conditions: 5 µM
[30] = system: sigma (non-selective) (h); experiment: Cerep binding, agonist radioligand; parameters: species or system human; conditions: 5 µM
[31] = target: T21, PR (h) (Homo sapiens, UniProt P06401); experiment: Cerep binding, agonist radioligand; conditions: read-out: % Inhibition of Control Specific Binding
T21 construct: purchased Eurofins Pharma Discovery Services (CEREP diversity panel)

[32] = target: T22, AR (h) (Homo sapiens, UniProt P10275, T878A); experiment: Cerep binding, agonist radioligand; conditions: read-out: % Inhibition of Control Specific Binding
T22 construct: purchased Eurofins Pharma Discovery Services (CEREP diversity panel)

[33] = system: Ca2+ channel (L, dihydropyridine site); experiment: Cerep binding, antagonist radioligand; conditions: 5 µM
[34] = system: KV channel; experiment: Cerep binding, antagonist radioligand; conditions: 5 µM
[35] = system: SKCa channel; experiment: Cerep binding, antagonist radioligand; conditions: 5 µM
[36] = system: Cl- channel (GABA-gated); experiment: Cerep binding, antagonist radioligand; conditions: 5 µM
[37] = target: T23, norepinephrine transporter (h) (Homo sapiens, UniProt P23975); experiment: Cerep binding, antagonist radioligand; conditions: read-out: % Inhibition of Control Specific Binding
T23 construct: purchased Eurofins Pharma Discovery Services (CEREP diversity panel)

[38] = target: T24, dopamine transporter (h) (Homo sapiens, UniProt Q01959); experiment: Cerep binding, antagonist radioligand; conditions: read-out: % Inhibition of Control Specific Binding
T24 construct: purchased Eurofins Pharma Discovery Services (CEREP diversity panel)

[39] = system: GABA transporter; experiment: Cerep binding, antagonist radioligand; conditions: 5 µM
[40] = target: T25, 5-HT transporter (h) (Homo sapiens, UniProt P31645); experiment: Cerep binding, antagonist radioligand; conditions: read-out: % Inhibition of Control Specific Binding
T25 construct: purchased Eurofins Pharma Discovery Services (CEREP diversity panel)

[41] = target: T26, PDE2A1 (h) (Homo sapiens, UniProt O00408); experiment: Cerep enzyme and cell-based assays; format: biochemical; conditions: read-out: % Inhibition of Control Values
T26 construct: Eurofins Pharma Discovery Services (CEREP diversity panel, outsourced assay)

[42] = target: T27, PDE3A (h) (Homo sapiens, UniProt Q14432); experiment: Cerep enzyme and cell-based assays; format: biochemical; conditions: read-out: % Inhibition of Control Values
T27 construct: Eurofins Pharma Discovery Services (CEREP diversity panel, outsourced assay)

[43] = target: T28, PDE4D2 (h) (Homo sapiens, UniProt Q08499); experiment: Cerep enzyme and cell-based assays; format: biochemical; conditions: read-out: % Inhibition of Control Values
T28 construct: Eurofins Pharma Discovery Services (CEREP diversity panel, outsourced assay)

[44] = target: T29, sirtuin 2 (h) (inhibitor effect) (Homo sapiens, UniProt Q8IXJ6); experiment: Cerep enzyme and cell-based assays; format: biochemical; conditions: read-out: % Inhibition of Control Values
T29 construct: Eurofins Pharma Discovery Services (CEREP diversity panel, outsourced assay)

[45] = system: adenylyl cyclase (activator effect); experiment: Cerep enzyme and cell-based assays; format: biochemical; conditions: 5 µM
[46] = system: Panc-Tu-I cells; experiment: long-term time-lapse microscopy; conditions: 72 h, 5 μM Deltarasin or 10 μM Deltazinone 1
[47] = system: S6P phosphorylation; experiment: western blot, S6P phosphorylation in PANC-1; conditions: PANC-1, 1 h, 5 μM Deltarasin, 5 min EGF
Protocol: To examine whether PDEδ inhibition by Deltarasin and Deltazinone 1 downregulates the signal transduction via these pathways, we examined the phosphorylation of extracellular signal regulated kinase (Erk) and S6 Ribosomal Protein (S6P) in the oncogenic KRas-dependent Panc-Tu-1 and KRas-independent PANC-1 cells. […] Cells were lysed with RIPA-buffer (20 mM Tris pH 7.5, 150 mM NaCl, 0.5 mM Na2 EDTA, 1 % sodium deoxycholate, 0.1% sodium dodecyl sulfate, 1% IGEPAL supplemented with Complete Mini EDTA-free protease inhibitor (Roche Applied Science) and 1% phosphatase inhibitor cocktail 2 and 3 (P5726 and P0044, Sigma Aldrich), scraped off after 5 min on ice and centrifuged at 14,000g for 20 min at 4 °C. SDS–polyacrylamide gel electrophoresis was carried out with 10–25 μg of whole-cell lysate from each sample. The gels were blotted onto polyvinylidene difluoride membrane (Millipore) and blocked for 1 h at room temperature. […] Blots were scanned on a LI-COR Odyssey imaging system.
Western blots were quantified using ImageJ. The background of the blots was subtracted by applying the rolling ball subtraction with a radius of 50 pixels. Afterwards the integrated intensity of the bands was measured.

T19 sequence (P29371 whole entry): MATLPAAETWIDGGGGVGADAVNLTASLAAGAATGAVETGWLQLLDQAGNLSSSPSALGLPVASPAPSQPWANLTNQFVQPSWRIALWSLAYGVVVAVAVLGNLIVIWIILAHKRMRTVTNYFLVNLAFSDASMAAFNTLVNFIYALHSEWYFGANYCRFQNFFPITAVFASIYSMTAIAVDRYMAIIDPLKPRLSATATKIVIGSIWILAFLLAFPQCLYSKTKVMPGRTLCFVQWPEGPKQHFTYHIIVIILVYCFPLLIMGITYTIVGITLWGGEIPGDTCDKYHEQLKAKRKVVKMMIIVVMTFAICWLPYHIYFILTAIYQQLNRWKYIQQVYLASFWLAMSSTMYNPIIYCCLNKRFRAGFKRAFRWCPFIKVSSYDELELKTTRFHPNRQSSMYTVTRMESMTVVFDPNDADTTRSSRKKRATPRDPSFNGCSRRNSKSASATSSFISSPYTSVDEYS
T22 sequence (P10275 whole entry T878A): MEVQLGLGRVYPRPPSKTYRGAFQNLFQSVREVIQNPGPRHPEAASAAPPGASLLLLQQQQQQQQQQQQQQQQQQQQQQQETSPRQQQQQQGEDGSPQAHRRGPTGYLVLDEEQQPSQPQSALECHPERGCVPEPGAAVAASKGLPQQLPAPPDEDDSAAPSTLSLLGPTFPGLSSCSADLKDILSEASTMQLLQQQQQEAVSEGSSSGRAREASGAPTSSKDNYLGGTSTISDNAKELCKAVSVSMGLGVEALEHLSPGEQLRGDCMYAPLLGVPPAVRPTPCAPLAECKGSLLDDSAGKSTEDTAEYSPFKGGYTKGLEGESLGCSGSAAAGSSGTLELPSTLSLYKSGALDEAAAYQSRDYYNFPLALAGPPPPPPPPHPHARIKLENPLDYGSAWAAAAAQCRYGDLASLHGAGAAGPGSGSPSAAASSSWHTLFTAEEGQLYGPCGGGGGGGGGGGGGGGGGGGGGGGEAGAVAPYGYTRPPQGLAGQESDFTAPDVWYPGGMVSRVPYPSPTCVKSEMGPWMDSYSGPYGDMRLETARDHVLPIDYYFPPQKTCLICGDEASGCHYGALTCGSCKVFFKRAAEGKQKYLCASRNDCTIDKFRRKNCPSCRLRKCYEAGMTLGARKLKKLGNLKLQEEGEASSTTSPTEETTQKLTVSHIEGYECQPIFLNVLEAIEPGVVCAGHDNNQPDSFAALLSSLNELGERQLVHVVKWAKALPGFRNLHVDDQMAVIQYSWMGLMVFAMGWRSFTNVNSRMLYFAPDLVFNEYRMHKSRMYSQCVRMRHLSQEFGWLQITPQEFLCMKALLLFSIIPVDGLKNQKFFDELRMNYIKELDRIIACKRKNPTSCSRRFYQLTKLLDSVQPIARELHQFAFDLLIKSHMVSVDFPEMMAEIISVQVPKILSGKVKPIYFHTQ
T28 sequence (Q08499 303-809 limits assumed): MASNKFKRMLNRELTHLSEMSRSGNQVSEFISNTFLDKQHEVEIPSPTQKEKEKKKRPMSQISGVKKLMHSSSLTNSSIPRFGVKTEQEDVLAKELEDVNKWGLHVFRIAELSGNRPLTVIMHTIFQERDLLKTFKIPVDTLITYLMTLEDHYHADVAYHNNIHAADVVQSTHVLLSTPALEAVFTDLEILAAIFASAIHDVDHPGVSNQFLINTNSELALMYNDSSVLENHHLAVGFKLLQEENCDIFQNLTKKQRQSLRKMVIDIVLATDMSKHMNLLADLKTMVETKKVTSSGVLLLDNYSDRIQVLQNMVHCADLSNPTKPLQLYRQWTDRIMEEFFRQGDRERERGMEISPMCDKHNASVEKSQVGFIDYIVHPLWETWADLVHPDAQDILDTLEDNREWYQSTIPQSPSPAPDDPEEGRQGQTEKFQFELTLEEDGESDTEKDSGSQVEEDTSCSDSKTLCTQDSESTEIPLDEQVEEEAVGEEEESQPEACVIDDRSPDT
T3 sequence (P08588 whole entry): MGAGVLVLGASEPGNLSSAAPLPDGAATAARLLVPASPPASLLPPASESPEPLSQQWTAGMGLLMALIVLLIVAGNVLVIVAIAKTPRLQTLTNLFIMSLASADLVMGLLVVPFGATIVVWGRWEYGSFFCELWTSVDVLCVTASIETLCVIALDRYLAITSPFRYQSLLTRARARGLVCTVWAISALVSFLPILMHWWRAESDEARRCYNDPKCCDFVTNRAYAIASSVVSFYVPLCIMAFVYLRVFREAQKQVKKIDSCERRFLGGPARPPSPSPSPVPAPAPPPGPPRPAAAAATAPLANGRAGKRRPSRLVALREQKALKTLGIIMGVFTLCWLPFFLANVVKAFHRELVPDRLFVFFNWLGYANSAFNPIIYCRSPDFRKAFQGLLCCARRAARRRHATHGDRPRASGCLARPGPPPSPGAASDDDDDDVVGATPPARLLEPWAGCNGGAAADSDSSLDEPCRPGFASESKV
T4 sequence (P07550 whole entry): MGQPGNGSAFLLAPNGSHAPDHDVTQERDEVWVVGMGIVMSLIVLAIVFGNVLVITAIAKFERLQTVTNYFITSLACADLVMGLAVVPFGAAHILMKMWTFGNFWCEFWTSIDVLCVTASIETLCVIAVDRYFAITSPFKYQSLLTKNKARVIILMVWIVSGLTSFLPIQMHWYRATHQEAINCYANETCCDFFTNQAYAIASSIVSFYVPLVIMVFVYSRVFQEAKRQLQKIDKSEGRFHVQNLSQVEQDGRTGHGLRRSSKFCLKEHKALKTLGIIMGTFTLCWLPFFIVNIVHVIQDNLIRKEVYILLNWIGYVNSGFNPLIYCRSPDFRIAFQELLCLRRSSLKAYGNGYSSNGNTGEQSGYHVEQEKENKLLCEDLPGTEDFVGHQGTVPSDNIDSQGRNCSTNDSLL
T12 sequence (P25101 21-427): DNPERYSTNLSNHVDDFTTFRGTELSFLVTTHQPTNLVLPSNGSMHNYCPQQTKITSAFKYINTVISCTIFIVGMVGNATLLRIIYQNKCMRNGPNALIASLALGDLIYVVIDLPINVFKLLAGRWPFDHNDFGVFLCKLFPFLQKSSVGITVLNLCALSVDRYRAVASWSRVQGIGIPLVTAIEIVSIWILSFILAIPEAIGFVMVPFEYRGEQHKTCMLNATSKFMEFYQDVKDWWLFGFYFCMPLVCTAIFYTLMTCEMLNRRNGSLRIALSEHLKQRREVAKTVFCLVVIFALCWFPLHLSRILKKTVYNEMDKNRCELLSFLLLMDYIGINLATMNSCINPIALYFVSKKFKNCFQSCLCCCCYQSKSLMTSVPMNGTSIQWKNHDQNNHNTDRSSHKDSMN
T8 sequence (P30411 whole entry): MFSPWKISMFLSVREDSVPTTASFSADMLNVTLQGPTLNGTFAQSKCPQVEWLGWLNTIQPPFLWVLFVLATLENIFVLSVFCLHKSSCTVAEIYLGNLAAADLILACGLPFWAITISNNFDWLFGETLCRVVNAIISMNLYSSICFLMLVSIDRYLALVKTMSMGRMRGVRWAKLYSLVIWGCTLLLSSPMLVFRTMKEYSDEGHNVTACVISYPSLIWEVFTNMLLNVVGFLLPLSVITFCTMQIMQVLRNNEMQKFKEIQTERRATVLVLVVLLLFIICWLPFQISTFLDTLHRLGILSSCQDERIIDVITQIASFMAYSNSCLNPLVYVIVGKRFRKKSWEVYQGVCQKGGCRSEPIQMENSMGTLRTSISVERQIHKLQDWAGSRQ
T18 sequence (P21452 whole entry): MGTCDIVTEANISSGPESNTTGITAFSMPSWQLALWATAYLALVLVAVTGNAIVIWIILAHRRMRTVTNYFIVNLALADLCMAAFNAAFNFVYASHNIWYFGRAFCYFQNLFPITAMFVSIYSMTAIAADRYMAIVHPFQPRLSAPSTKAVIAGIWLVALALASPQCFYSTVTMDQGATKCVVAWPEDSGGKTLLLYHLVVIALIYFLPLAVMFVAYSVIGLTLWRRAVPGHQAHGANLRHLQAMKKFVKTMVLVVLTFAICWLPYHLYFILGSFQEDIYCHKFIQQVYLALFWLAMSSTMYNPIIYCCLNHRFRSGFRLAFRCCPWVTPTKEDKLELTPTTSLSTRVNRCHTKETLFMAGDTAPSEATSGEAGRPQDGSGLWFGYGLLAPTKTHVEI
T5 sequence (P30556 whole entry): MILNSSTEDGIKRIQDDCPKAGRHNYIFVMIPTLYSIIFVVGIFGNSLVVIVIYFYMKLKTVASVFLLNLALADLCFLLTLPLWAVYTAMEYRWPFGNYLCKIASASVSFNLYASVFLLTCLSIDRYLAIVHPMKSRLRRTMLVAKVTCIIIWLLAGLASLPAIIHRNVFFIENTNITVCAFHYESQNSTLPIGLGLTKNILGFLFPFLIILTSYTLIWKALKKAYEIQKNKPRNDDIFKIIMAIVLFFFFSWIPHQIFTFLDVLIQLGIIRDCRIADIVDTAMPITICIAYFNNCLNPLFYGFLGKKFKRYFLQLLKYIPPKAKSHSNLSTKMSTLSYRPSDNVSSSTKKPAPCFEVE
T17 sequence (P25103 whole entry): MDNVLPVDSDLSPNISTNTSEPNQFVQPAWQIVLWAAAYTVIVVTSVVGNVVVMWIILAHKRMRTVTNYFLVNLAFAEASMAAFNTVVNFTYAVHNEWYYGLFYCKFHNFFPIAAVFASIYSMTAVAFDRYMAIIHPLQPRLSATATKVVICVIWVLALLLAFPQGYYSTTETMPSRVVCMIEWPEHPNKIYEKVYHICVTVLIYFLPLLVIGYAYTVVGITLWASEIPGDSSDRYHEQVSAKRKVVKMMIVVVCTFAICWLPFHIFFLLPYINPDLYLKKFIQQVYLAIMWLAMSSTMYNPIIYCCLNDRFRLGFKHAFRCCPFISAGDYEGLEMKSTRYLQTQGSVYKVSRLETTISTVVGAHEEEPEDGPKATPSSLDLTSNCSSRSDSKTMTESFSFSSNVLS

Structure (SMILES): c1ccc(Cn2c(-c3ccc(OC[C@H](C4CCNCC4)n4c(-c5ccccc5)nc5ccccc54)cc3)nc3ccccc32)cc1 [Deltarasin, reference compound]
- inhibition at 5 µM [1]: 37%
- inhibition at 5 µM [2]: 70%
- % Inhibition of Control Specific Binding [3]: 33%
- inhibition at 5 µM [4]: 21%
- inhibition at 5 µM [5]: 7%
- inhibition at 5 µM [6]: 41%
- inhibition at 5 µM [7]: 49%
- % Inhibition of Control Specific Binding [8]: -17%
- inhibition at 5 µM [9]: 3%
- inhibition at 5 µM [10]: 10%
- inhibition at 5 µM [11]: 7%
- inhibition at 5 µM [12]: 24%
- inhibition at 5 µM [13]: 93%
- inhibition at 5 µM [14]: 2%
- % Inhibition of Control Specific Binding [15]: 14%
- % Inhibition of Control Specific Binding [16]: 17%
- % Inhibition of Control Specific Binding [17]: 14%
- % Inhibition of Control Specific Binding [18]: 11%
- inhibition at 5 µM [19]: 78%
- inhibition at 5 µM [20]: 38%
- inhibition at 5 µM [21]: 19%
- inhibition at 5 µM [22]: 28%
- inhibition at 5 µM [23]: 89%
- inhibition at 5 µM [24]: 97%
- inhibition at 5 µM [25]: 61%
- % Inhibition of Control Specific Binding [26]: 10%
- inhibition at 5 µM [27]: 8%
- % Inhibition of Control Specific Binding [28]: 10%
- % Inhibition of Control Specific Binding [29]: 13%
- % Inhibition of Control Specific Binding [30]: 57%
- inhibition at 5 µM [31]: 41%
- inhibition at 5 µM [32]: -23%
- % Inhibition of Control Specific Binding [33]: 87%
- % Inhibition of Control Specific Binding [34]: -2%
- % Inhibition of Control Specific Binding [35]: 3%
- % Inhibition of Control Specific Binding [36]: 2%
- inhibition at 5 µM [37]: 70%
- inhibition at 5 µM [38]: 65%
- % Inhibition of Control Specific Binding [39]: 20%
- inhibition at 5 µM [40]: 39%
- inhibition at 5 µM [41]: 3%
- inhibition at 5 µM [42]: 11%
- inhibition at 5 µM [43]: 7%
- inhibition at 5 µM [44]: 15%
- % Inhibition of Control Values [45]: 2%
- cell death in time-lapse microscopy [46]: cell death
- EGF-induced S6P phosphorylation [47]: reduced in both lines
